We go through one molecule from ChEMBL document CHEMBL1629570, “Posaconazole mono- or combination therapy for treatment of murine zygomycosis” (Antimicrob Agents Chemother, 2009).

Molecules are shown by their SMILES. Calls of active or inactive are those of the source. The calls are words filed in the database; no cut-off is given here.

Common to all, as to assay type: functional, organism-based
The test system of experiment [1] is Rhizopus arrhizus. Kind of experiment: Antifungal activity against Rhizopus oryzae 99-880 infected in diabetic ketoacidotic BALB/c mouse assessed as improved time to death at 10 mg/kg/day, po administered 24 hrs post infection for 4 days.
Experiment [2] has as its system Rhizopus arrhizus. The experiment in a line: Antifungal activity against Rhizopus oryzae 99-880 infected in diabetic ketoacidotic BALB/c mouse assessed as improved time to death at 30 mg/kg/day, po administered 24 hrs post infection for 4 days.
Experiment [3] concerns Rhizopus arrhizus. Kind of experiment: Antifungal activity against Rhizopus oryzae 99-880 infected in diabetic ketoacidotic BALB/c mouse assessed as improved time to death at 60 mg/kg/day, po administered 24 hrs post infection for 4 days.
The subject of experiment [4] is Rhizopus arrhizus. The experiment in a line: Antifungal activity against Rhizopus oryzae 99-880 infected in diabetic ketoacidotic mouse assessed as mouse survival at 10 mg/kg/day, po administered 24 hrs post infection for 4 days.
For experiment [5], the system named is Rhizopus arrhizus. Kind of experiment: Antifungal activity against Rhizopus oryzae 99-880 infected in diabetic ketoacidotic mouse assessed as mouse survival at 30 mg/kg/day, po administered 24 hrs post infection for 4 days.
In experiment [6] the test system is Rhizopus arrhizus. Kind of experiment: Antifungal activity against Rhizopus oryzae 99-880 infected in diabetic ketoacidotic mouse assessed as mouse survival at 60 mg/kg/day, po administered 24 hrs post infection for 4 days.
In experiment [7] the test system is Rhizopus arrhizus. The experiment in a line: Antifungal activity against Rhizopus oryzae 99-880 infected in diabetic ketoacidotic mouse assessed as reduction of fungal burden in kidneys at 60 mg/kg/day, po administered 8 hrs post infection for 3 days. Particulars: Kidney.
For experiment [8], the system named is Rhizopus arrhizus. Kind of experiment: Antifungal activity against Rhizopus oryzae 99-880 infected in diabetic ketoacidotic mouse assessed as reduction of fungal burden in brain at 60 mg/kg/day, po administered 8 hrs post infection for 3 days.
Experiment [9] concerns Rhizopus arrhizus. Kind of experiment: Antifungal activity against Rhizopus oryzae 99-880 infected in neutropenic BALB/c mouse assessed as improved time to death at 60 mg/kg/day, po administered 24 hrs post infection for 4 days.
Experiment [10] concerns Rhizopus arrhizus. Kind of experiment: Antifungal activity against Rhizopus oryzae 99-880 infected in neutropenic mouse assessed as reduction of fungal burden in kidneys at 60 mg/kg/day, po administered 8 hrs post infection for 3 days. Particulars: Kidney.
Experiment [11] concerns Rhizopus arrhizus. Kind of experiment: Antifungal activity against Rhizopus oryzae 99-880 infected in neutropenic mouse assessed as reduction of fungal burden in brain at 60 mg/kg/day, po administered 8 hrs post infection for 3 days.

Turning to `CC[C@@H]([C@H](C)O)n1ncn(-c2ccc(N3CCN(c4ccc(OC[C@@H]5CO[C@@](Cn6cncn6)(c6ccc(F)cc6F)C5)cc4)CC3)cc2)c1=O`, the outcome with Rhizopus arrhizus [1], in the experiment with Rhizopus arrhizus [2], in the experiment on Rhizopus arrhizus [4], with Rhizopus arrhizus [5], in the experiment with Rhizopus arrhizus [6] and in the experiment on Rhizopus arrhizus [7] was inactive. For the same molecule, the result in the experiment with Rhizopus arrhizus [8], with Rhizopus arrhizus [9], with Rhizopus arrhizus [10] and with Rhizopus arrhizus [11] was inactive. In the experiment with Rhizopus arrhizus [3], the result was Active.
